Data set [1] has as its system HBV (HepG2.117 cell line, inducibly HBV producing). Nature of the data set: Anti-HBV activity: intracellular HBV DNA by real-time PCR in HepG2.117 cells after 3 days of treatment. The data set is classed as cell-based, hepatitis B virus. Put shortly:
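Readout is intracellular HBV DNA, measured by real-time PCR with HBV-specific primers and probe after 3 days of exposure to serial compound dilutions. Cells are the stable HepG2.117 line, where HBV replication is induced in the absence of doxycycline.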

A further data set concerns HepG2 cells. In words: in vitro. In kind it is cell-based. To be noted: HepG2 or HepG2.117 cells, ATPlite, mean value, read-out: CC50 (μM, mean value). Put shortly: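 Luminescent ATP quantitation served as the viability endpoint following a 3- or 4-day incubation with test compounds.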
[2] abbreviates: HepG2.117 cells, intracellular HBV DNA by real-time PCR, 3 days of treatment, mean value; read-out: EC50 (μM, mean value).
Where [3] appears, read: 3-days incubation (not marked with *).
The mark [4] stands for this setting: HepG2.117 cells, 3 days of treatment, intracellular HBV DNA by real-time PCR; mean value; read-out: EC50 (μM, mean value).
[5] abbreviates: 3-days incubation (unmarked values).

Read-outs that look alike come from different tables or passages of the source. Where only a bound is given, the exact number is not on record here.

As for `CNC(=O)c1ccc(-n2c(NC(C)C)nc3c(c2=O)C[C@@H](C)N(C(=O)c2ccc(Cl)c(C(F)(F)F)c2)C3)c(C2CC2)c1` (single isomer, unassigned) [Compound C661a], the EC50 in data set [1] (setting [2]) was 0.07 µM. For the same compound, the 50% cytotoxic concentration (CC50) in the data set with HepG2 cells (setting [3]) was greater than 50 µM.
The like results for `Cc1cc(-c2ncc[nH]2)ccc1-n1c(NC(C)C)nc2c(c1=O)C[C@@H](C)N(C(=O)c1ccc(Cl)c(Cl)c1)C2` (single isomer, unassigned) [Compound C399b] were, in that order, 0.16 µM and 27 µM.
For `CC(C)Nc1nc2c(c(=O)n1-c1ccc(-c3ncc[nH]3)cc1Cl)C[C@@H](C)N(C(=O)c1ccc(Cl)c(Cl)c1)C2` (single isomer, unassigned) [Compound C393b], the EC50 in data set [1] (setting [2]) was 0.24 µM. The CC50 in the data set with HepG2 cells (setting [3]) is 31.7 µM.
The like results for `CNc1noc2cc(-n3c(NC(C)C)nc4c(c3=O)C[C@@H](C)N(C(=O)c3ccc(Cl)c(Cl)c3)C4)c(C)cc12` (single isomer, unassigned) [Compound C447b] were, in that order, 0.05 µM and greater than 50 µM.
In the case of `COc1ccc(CNc2nc3c(c(=O)n2-c2ccccc2OC)C[C@H](C)N(C(=O)c2ccc(Cl)c(Cl)c2)C3)cc1` (single isomer, unassigned) [Compound C36Ba], the concentration for a half-maximal effect (EC50) in data set [1] (setting [4]) turned out to be 1.21 µM. For the same compound, the 50% cytotoxic concentration (CC50) with HepG2 cells (setting [5]) was greater than 50 µM.
Turning to `CNC(=O)c1ccc(-n2c(NC(C)C)nc3c(c2=O)C[C@@H](C)N(C(=O)c2ccc(Cl)c(Cl)c2)C3)c(C)c1` [Compound C300b, 4-[(6R)-7-(3,4-dichlorobenzoyl)-6-methyl-4-oxo-2-[(propan-2-yl)amino]-5,6,7,8-tetrahydropyrido[3,4-d]pyrimidin-3(4H)-yl]-N,3-dimethylbenzamide], the EC50 in data set [1] (setting [4]) turned out to be 0.09 µM. Besides, the CC50 in the data set on HepG2 cells (setting [5]) is greater than 50 µM.
With `Cc1c[nH]c(-c2ccc(-n3c(NC(C)C)nc4c(c3=O)C[C@@H](C)N(C(=O)c3ccc(Cl)c(Cl)c3)C4)c(Cl)c2)n1` (single isomer, unassigned) [Compound C455a], in data set [1] (Hepatitis B virus, HepG2.117, 72 h, HepG2.117 cells, intracellular HBV DNA by real-time PCR, 3 days of treatment, mean value; read-out: EC50 (μM, mean value)), the EC50 was 0.05 µM. In the data set with HepG2 cells (setting [3]), the CC50 is 17.6 µM.
On to `CNC(=O)c1ccc(-n2c(NC(C)C)nc3c(c2=O)C[C@@H](C)N(C(=O)c2ccc(Cl)c(C(F)(F)F)c2)C3)c(OC)c1` (single isomer, unassigned) [Compound C643b], for which the concentration giving a half-maximal response (EC50) in data set [1] (setting [2]) stood at 0.05 µM. Further, in the data set with HepG2 cells (setting [3]), the CC50 was greater than 50 µM.
`CNC(=O)c1ccc(-n2c(NC(C)C)nc3c(c2=O)C[C@@H](C)N(C(=O)c2ccc(Cl)c(Cl)c2)C3)c(C(F)(F)F)c1` (single isomer, unassigned) [Compound C340b]: the half-maximal effective concentration (EC50) in data set [1] (setting [4]) came out at 0.39 µM. Further, the CC50 with HepG2 cells (setting [5]) is 29.8 µM.
As to `COc1ccccc1-n1c(NCc2ccc3c(c2)OCO3)nc2c(c1=O)CCN(C(=O)c1ccc(Cl)c(Cl)c1)C2` (single isomer, unassigned) [Compound C26b, 2-{[(2H-1,3-benzodioxol-5-yl)methyl]amino}-7-(3,4-dichlorobenzoyl)-3-(2-methoxyphenyl)-5,6,7,8-tetrahydropyrido[3,4-d]pyrimidin-4(3H)-one], in data set [1] (setting [4]), the half-maximal effective concentration (EC50) was found to be 1.04 µM. In addition, in the data set with HepG2 cells (setting [5]), the half-maximal cytotoxic concentration (CC50) was greater than 50 µM.
The like results for `CNC(=O)c1ccc(-n2c(NC(C)C)nc3c(c2=O)C[C@@H](C)N(C(=O)c2ccc(Cl)c(Cl)c2)C3)c(Cl)c1` (atropisomer, axis not shown) [Compound C293b, 3-chloro-4-[(6R)-7-(3,4-dichlorobenzoyl)-6-methyl-4-oxo-2-[(propan-2-yl)amino]-5,6,7,8-tetrahydropyrido[3,4-d]pyrimidin-3(4H)-yl]-N-methylbenzamide] were, in that order, 0.06 µM and 27.1 µM.
Take `COc1ccccc1-n1c(N[C@@H](C)CO)nc2c(c1=O)CCN(C(=O)c1ccc(Cl)c(Cl)c1)C2` (single isomer, unassigned) [Compound C62Bb, 7-(3,4-dichlorobenzoyl)-2-{[(2*S)-1-hydroxypropan-2-yl]amino}-3-(2-methoxyphenyl)-5,6,7,8-tetrahydropyrido[3,4-d]pyrimidin-4(3H)-one]: the half-maximal effective concentration (EC50) in data set [1] (setting [4]) was 6.6 µM. The CC50 with HepG2 cells (setting [5]) is greater than 50 µM.

The record behind these values is patent US20230091047A1 (priority 2019, published 2023).
